Laboratory results as given in the supplement of paper PMC10307832.

Tests used:
Test in all cases: relative viability (nuclei count vs DMSO), 5 days (fraction); higher = more cells survive
[1] = compound: CO[C@@H]1[C@H](N(C)C(=O)c2ccccc2)C[C@H]2O[C@]1(C)n1c3ccccc3c3c4c(c5c6ccccc6n2c5c31)C(=O)NC4 [Midostaurin] + CC(=O)Nc1cccc(-n2c(=O)n(C3CC3)c(=O)c3c(Nc4ccc(I)cc4F)n(C)c(=O)c(C)c32)c1 [Trametinib] (partner 0.02 µM)
Outline: (§1)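 Lung cancer cell lines were pin-tool dosed in 1536-well plates on the day after seeding, with either a lone drug or a fixed anchor-drug dose plus five library-drug doses (not always all listed) in √10 steps. Nuclei were counted on 4× images after 5 days. Relative viability is the ratio of treated-well to vehicle-well nuclei counts, with each value a median of duplicate plates.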

[2] = compound: CO[C@@H]1[C@H](N(C)C(=O)c2ccccc2)C[C@H]2O[C@]1(C)n1c3ccccc3c3c4c(c5c6ccccc6n2c5c31)C(=O)NC4 [Midostaurin] + Nc1ncn([C@H]2C[C@H](O)[C@@H](CO)O2)c(=O)n1 [Decitabine] (partner 2 µM)
Outline: as §1

[3] = compound: COc1cc(-c2nn([C@H]3CC[C@H](N4CCN(C(C)=O)CC4)CC3)c3ncnc(N)c23)ccc1NC(=O)c1cc2ccccc2n1C + Cc1nc(Nc2ncc(C(=O)Nc3c(C)cccc3Cl)s2)cc(N2CCN(CCO)CC2)n1 [Dasatinib] (partner 0.075 µM)
Outline: as §1

[4] = compound: CO[C@@H]1[C@H](N(C)C(=O)c2ccccc2)C[C@H]2O[C@]1(C)n1c3ccccc3c3c4c(c5c6ccccc6n2c5c31)C(=O)NC4 [Midostaurin] + CS(=O)(=O)N1CCN(Cc2cc3nc(-c4cccc5[nH]ncc45)nc(N4CCOCC4)c3s2)CC1 [Pictilisib] (partner 1 µM)
Outline: as §1

[5] = compound: COc1cc(-c2nn([C@H]3CC[C@H](N4CCN(C(C)=O)CC4)CC3)c3ncnc(N)c23)ccc1NC(=O)c1cc2ccccc2n1C + CC1(C)CCC(c2ccc(Cl)cc2)=C(CN2CCN(c3ccc(C(=O)NS(=O)(=O)c4ccc(N[C@H](CCN5CCOCC5)CSc5ccccc5)c(S(=O)(=O)C(F)(F)F)c4)cc3)CC2)C1 [Navitoclax] (partner 0.5 µM)
Outline: as §1

Cell Line	relative viability ([1]; first compound 0.01 µM)	relative viability ([1]; first compound 0.03162 µM)	relative viability ([1]; first compound 0.1 µM)	relative viability ([1]; first compound 0.3162 µM)	relative viability ([2]; first compound 0.01 µM)	relative viability ([2]; first compound 0.03162 µM)	relative viability ([2]; first compound 0.1 µM)	relative viability ([2]; first compound 0.3162 µM)	relative viability ([3]; first compound 0.0128 µM)	relative viability ([3]; first compound 0.04048 µM)	relative viability ([3]; first compound 0.128 µM)	relative viability ([3]; first compound 1.28 µM)	relative viability ([4]; first compound 0.01 µM)	relative viability ([4]; first compound 0.03162 µM)	relative viability ([4]; first compound 0.1 µM)	relative viability ([4]; first compound 0.3162 µM)	relative viability ([5]; first compound 0.0128 µM)	relative viability ([5]; first compound 0.04048 µM)	relative viability ([5]; first compound 0.128 µM)	relative viability ([5]; first compound 1.28 µM)
NCI-H2342	0.895	0.735	0.89	0.778	0.73	0.787	0.716	0.827	0.312	0.309	0.335	0.323	–	–	–	–	–	–	–	–
HCC-15	0.411	0.353	0.367	0.372	0.657	0.669	0.614	0.585	0.638	0.593	0.684	0.731	0.785	0.705	0.762	0.823	0.755	0.59	0.672	0.454
A-427	0.671	0.809	0.712	0.637	0.574	0.6	0.529	0.547	0.744	–	0.65	0.856	0.75	0.614	0.702	0.578	1.06	0.763	1.04	0.795
NCI-H2228	0.522	0.634	0.792	0.723	–	–	–	–	0.474	0.436	0.52	0.456	0.422	0.454	0.452	0.617	0.825	1.17	0.91	0.745
NCI-H1734	0.625	0.678	0.691	0.685	0.508	0.499	0.486	0.521	0.429	0.599	0.531	0.516	0.465	0.424	0.496	0.303	0.879	0.719	0.744	0.736
PC-14	0.707	0.914	0.692	0.635	0.184	0.204	0.227	0.114	0.243	0.265	0.282	0.278	0.674	0.61	0.633	0.75	1.05	1.05	0.987	1.21
NCI-H1915	0.329	0.312	0.258	0.271	0.264	0.26	0.255	0.255	0.313	0.278	0.271	0.333	0.913	0.852	1.01	0.98	0.851	0.755	0.758	0.706
NCI-H1666	0.823	0.882	0.711	0.81	0.719	0.684	0.777	0.716	0.766	0.807	0.802	0.756	0.406	0.359	0.523	0.516	0.883	0.805	0.806	0.955
HCC-366	0.304	0.33	0.283	0.122	0.383	0.364	0.325	0.298	0.711	0.517	0.667	0.607	0.167	0.116	0.142	0.137	1.09	1	1.05	0.821
SK-MES-1	0.57	0.565	0.526	0.493	0.42	0.41	0.333	0.381	0.44	0.34	0.378	0.384	0.412	0.332	0.431	0.368	1.37	1.39	1.14	1.15
SW 1573	0.547	0.788	0.471	0.465	0.52	0.741	0.524	0.476	0.496	0.743	0.627	0.612	0.557	0.474	0.456	0.454	0.817	1.02	1.02	0.716
NCI-H661	0.597	0.617	0.61	0.534	0.622	0.611	0.598	0.596	0.923	0.765	0.829	0.94	0.397	0.386	0.33	0.438	–	–	–	–
PC-3 [JPC-3]	0.684	0.722	0.699	0.814	0.703	0.815	0.839	0.94	0.985	0.881	0.922	1.03	0.787	0.623	0.785	0.789	0.904	0.803	0.776	0.86
NCI-H1623	–	–	–	–	–	–	–	–	0.526	0.497	0.557	0.572	–	–	–	–	–	–	–	–
Calu-6	–	–	–	–	–	–	–	–	–	–	–	–	0.876	0.837	0.937	0.771	0.881	0.983	0.817	0.722
LC-2-ad	0.906	0.918	0.749	0.9	0.672	0.751	0.699	0.763	0.633	0.25	0.622	0.369	0.432	0.416	0.497	0.24	0.509	0.429	0.473	0.389
CAL-12T	0.399	0.298	0.331	0.33	–	–	–	–	0.418	0.252	0.487	0.436	0.457	0.417	0.334	0.413	1.2	1.41	1.27	1.44
